Test system: 186277-243-T-J2-PDC complex spheroid viability
Assay: Anticancer human tumor 186277-243-T-J2-PDC patient-derived colon adenocarcinoma cell line growth inhibition [GQUAD]
Conditions: for IC50: curve of first compound; for viability, T/C: stronger effect = lower value
Description: DNA G-quadruplex Stabilizer Agents in Combinations in Complex Spheroids
A high-throughput screen of multi-cell type tumor spheroids was designed to identify active combinations of DNA G-quadruplex stabilizer agents and targeted small molecules. Complex spheroids include a stromal component modeled by human endothelial cells (HUVEC) and fibroblasts modeled by human mesenchymal stem cells (MSCs). The concentration ranges selected for each drug and investigational agent were based upon clinically achievable concentrations if the clinical Cmax of the agent was known.
Compounds. The drugs and investigational agents: pidnarulex (CX-5461; NSC782164), APTO-253 (NSC789042), BRACO-19 (NSC847499), peposertib (NSC802822), ceralasertib (NSC780249), elimusertib (NSC800525), camonsertib (NSC841442), AZD-1390 (NSC803789), olaparib (NSC753686), talazoparib (NSC767125), ART-558 (NSC835418), sotorasib (NSC818433), MRTX-1133 (NSC836407), SN-38 (NSC673596), topotecan (NSC609699), etoposide (NSC141540), doxorubicin (NSC123127), gemcitabine (NSC613327), 5-fluorouracil (NSC19893), paclitaxel (NSC125973), vemurafenib (NSC761431), panobinostat (NSC761190), R-306465 (JNJ-16241199; NSC773264), adavosertib (NSC754352), TP-3654 (NSC805149), carboplatin (NSC241240), KSQ-4279 (NSC840948), and staurosporine (NSC755774) were obtained from the National Cancer Institute (NCI) Developmental Therapeutics Program Chemical Repository (34). The FDA-approved anticancer drug set is available from the NCI Developmental Therapeutics Program. […] The stock solutions were prepared in dimethyl sulfoxide (DMSO, Sigma-Aldrich, St. Louis, MO, cat. D2650) at 800-fold the tested concentration and stored at -70 degrees C prior to their use. All drugs and investigational agents were tested over a range starting from a high concentration at or near the clinical Cmax and decreasing in half-log increments. If the clinical Cmax for an agent had not been determined, the highest concentration tested was 10 microM.
2.3 Cell Culture. All cells were maintained in an incubator at 37 degrees C and 5% CO2 with 95% humidity. The PDC lines were cultured according to standard operating procedures established by the NCI PDMR. All PDCs were thawed and cultured in Matrigel-coated flasks prepared with a working solution of 1X Ham's F-12 nutrient mix, without supplementation (Invitrogen, cat. 11765054), 100 U/mL penicillin-streptomycin (Invitrogen, cat. 15140122), and 2.5% Matrigel (Corning Inc., cat. 354248) for the first three passages. The 857933-349-R-J2-PDC line was cultured in 6C/Colon 1B media, which includes advanced DMEM/F-12 (Thermo Fisher Scientific, cat. 12634028), 10 mM HEPES (Thermo Fisher Scientific, cat. 15630080), 1X GlutaMAX supplement (Thermo Fisher Scientific, cat. 35050061), 0.1 mg/mL primocin (InvivoGen, cat. ant-pm-2), 10% defined fetal bovine serum, heat inactivated (HyClone Laboratories Inc., cat. SH30070.03HI), 50% L-WRN conditioned media (ATCC, cat. CRL-3276), 1.25 mM N-Acetyl-L-cysteine (Sigma-Aldrich, cat. A9165), 10 mM nicotinamide (Sigma-Aldrich, cat. N0636), 1X B-27 supplement (Thermo Fisher Scientific, cat. 17504044), 1X N-2 supplement (Thermo Fisher Scientific, cat. 17502048), 10 microM Y-27632 dihydrochloride (Tocris Bioscience, cat. 1254), and 50 ng/mL human EGF recombinant protein (Thermo Fisher Scientific, cat. PHG0311). The 485176-168-R4-J1-PDC line was cultured in Panc media, which includes all 6C/Colon 1B media components plus 100 ng/mL human FGF-10 (Thermo Fisher Scientific, cat. 100-26), 500 nM SB-431542 (Selleckchem, cat. S1067), and gastrin (Tocris, cat. 3006).
[…]

[1] = second compound 0.0316 µM, first compound 0.0316 µM
[2] = second compound 0.0316 µM, first compound 0.316 µM
[3] = second compound 0.1 µM, first compound 0.0316 µM
[4] = second compound 0.1 µM, first compound 0.316 µM
[5] = second compound 0.316 µM, first compound 0.0316 µM
[6] = second compound 0.316 µM, first compound 0.316 µM
[7] = second compound 1 µM, first compound 0.0316 µM
[8] = second compound 1 µM, first compound 0.316 µM
[9] = second compound 3.16 µM, first compound 0.0316 µM
[10] = second compound 3.16 µM, first compound 0.316 µM
[11] = second compound 10 µM, first compound 0.0316 µM
[12] = second compound 10 µM, first compound 0.316 µM
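Also: spheroids exposed to drugs for 7 days.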
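For viability, T/C in this document: 100% = DMSO vehicle control viability.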

Question: Which results are given for `O=C(NO)c1cnc(N2CCN(S(=O)(=O)c3ccc4ccccc4c3)CC2)nc1` + CN(C)c1ccc(Nc2c3ccc(NC(=O)CCN4CCCC4)cc3nc3cc(NC(=O)CCN4CCCC4)ccc23)cc1?
Answer: IC50 (second compound 0.0316 µM): 171 nM; IC50 (second compound 0.1 µM): 176 nM; IC50 (second compound 0.316 µM): 182 nM; IC50 (second compound 1 µM): 176 nM; IC50 (second compound 3.16 µM): 183 nM; IC50 (second compound 10 µM): 183 nM; viability, T/C [1]: 103%; viability, T/C (second compound 0.0316 µM, first compound 0.1 µM): 87%; viability, T/C [2]: 7.72%; viability, T/C (second compound 0.0316 µM, first compound 1 µM): 0.27%; viability, T/C (second compound 0.0316 µM, first compound 3.16 µM): 0.26%; viability, T/C (second compound 0.0316 µM, first compound 10 µM): 0.18%; viability, T/C [3]: 90.1%; viability, T/C (second compound 0.1 µM, first compound 0.1 µM): 91.3%; viability, T/C [4]: 7.71%; viability, T/C (second compound 0.1 µM, first compound 1 µM): 0.23%; viability, T/C (second compound 0.1 µM, first compound 3.16 µM): 0.14%; viability, T/C (second compound 0.1 µM, first compound 10 µM): 0.15%; viability, T/C [5]: 105%; viability, T/C (second compound 0.316 µM, first compound 0.1 µM): 94.8%; viability, T/C [6]: 8.34%; viability, T/C (second compound 0.316 µM, first compound 1 µM): 0.23%; viability, T/C (second compound 0.316 µM, first compound 3.16 µM): 0.12%; viability, T/C (second compound 0.316 µM, first compound 10 µM): 0.13%; viability, T/C [7]: 92.1%; viability, T/C (second compound 1 µM, first compound 0.1 µM): 90.8%; viability, T/C [8]: 7.85%; viability, T/C (second compound 1 µM, first compound 1 µM): 0.24%; viability, T/C (second compound 1 µM, first compound 3.16 µM): 0.13%; viability, T/C (second compound 1 µM, first compound 10 µM): 0.13%; viability, T/C [9]: 104%; viability, T/C (second compound 3.16 µM, first compound 0.1 µM): 94.2%; viability, T/C [10]: 9.96%; viability, T/C (second compound 3.16 µM, first compound 1 µM): 0.26%; viability, T/C (second compound 3.16 µM, first compound 3.16 µM): 0.16%; viability, T/C (second compound 3.16 µM, first compound 10 µM): 0.15%; viability, T/C [11]: 92.5%; viability, T/C (second compound 10 µM, first compound 0.1 µM): 101%; viability, T/C [12]: 7.98%; viability, T/C (second compound 10 µM, first compound 1 µM): 0.3%; viability, T/C (second compound 10 µM, first compound 3.16 µM): 0.21%; viability, T/C (second compound 10 µM, first compound 10 µM): 0.19%

Question: With `Cn1ncnc1[C@H]1c2n[nH]c(=O)c3cc(F)cc(c23)N[C@@H]1c1ccc(F)cc1` + Cc1[nH]c2ccc(F)cc2c1-c1nc2c3cccnc3c3ncccc3c2[nH]1 as the compound, how does the IC50 (second compound 0.0316 µM) read?
Answer: The IC50 was greater than 316 nM.

Question: And the IC50 (second compound 0.1 µM)?
Answer: The IC50 was greater than 316 nM.

Question: And the IC50 (second compound 0.316 µM)?
Answer: Its IC50 is greater than 316 nM.

Question: And the IC50 (second compound 1 µM)?
Answer: Its IC50 is greater than 316 nM.

Question: And the IC50 (second compound 3.16 µM)?
Answer: Its IC50 is greater than 316 nM.

Question: What about the IC50 (second compound 10 µM) of the same compound?
Answer: The IC50 was greater than 316 nM.

Question: And the viability, T/C (second compound 0.0316 µM, first compound 0.000999 µM)?
Answer: Its viability, T/C is 112%.

Question: What about the viability, T/C (second compound 0.0316 µM, first compound 0.00316 µM) of the same compound?
Answer: Its viability, T/C is 99.2%.

Question: What about the viability, T/C (second compound 0.0316 µM, first compound 0.00999 µM) of the same compound?
Answer: Its viability, T/C is 94.8%.

Question: And the viability, T/C [1]?
Answer: The viability, T/C was 94.2%.

Question: What about the viability, T/C (second compound 0.0316 µM, first compound 0.0999 µM) of the same compound?
Answer: The viability, T/C was 98.1%.

Question: What about the viability, T/C [2] of the same compound?
Answer: Its viability, T/C is 89.3%.

Question: And the viability, T/C (second compound 0.1 µM, first compound 0.000999 µM)?
Answer: Its viability, T/C is 93.5%.

Question: What about the viability, T/C (second compound 0.1 µM, first compound 0.00316 µM) of the same compound?
Answer: The viability, T/C was 98.2%.

Question: And the viability, T/C (second compound 0.1 µM, first compound 0.00999 µM)?
Answer: The viability, T/C was 101%.

Question: And the viability, T/C [3]?
Answer: Its viability, T/C is 91.7%.

Question: What about the viability, T/C (second compound 0.1 µM, first compound 0.0999 µM) of the same compound?
Answer: Its viability, T/C is 84.5%.

Question: And the viability, T/C [4]?
Answer: Its viability, T/C is 95.6%.

Question: What about the viability, T/C (second compound 0.316 µM, first compound 0.000999 µM) of the same compound?
Answer: The viability, T/C was 86.3%.

Question: And the viability, T/C (second compound 0.316 µM, first compound 0.00316 µM)?
Answer: The viability, T/C was 93.1%.

Question: And the viability, T/C (second compound 0.316 µM, first compound 0.00999 µM)?
Answer: Its viability, T/C is 96.7%.

Question: What about the viability, T/C [5] of the same compound?
Answer: The viability, T/C was 103%.

Question: What about the viability, T/C (second compound 0.316 µM, first compound 0.0999 µM) of the same compound?
Answer: The viability, T/C was 91.7%.

Question: What about the viability, T/C [6] of the same compound?
Answer: Its viability, T/C is 88.7%.

Question: And the viability, T/C (second compound 1 µM, first compound 0.000999 µM)?
Answer: The viability, T/C was 85.5%.

Question: And the viability, T/C (second compound 1 µM, first compound 0.00316 µM)?
Answer: The viability, T/C was 101%.

Question: And the viability, T/C (second compound 1 µM, first compound 0.00999 µM)?
Answer: The viability, T/C was 98.4%.

Question: And the viability, T/C [7]?
Answer: The viability, T/C was 102%.

Question: What about the viability, T/C (second compound 1 µM, first compound 0.0999 µM) of the same compound?
Answer: The viability, T/C was 102%.

Question: What about the viability, T/C [8] of the same compound?
Answer: Its viability, T/C is 89.6%.

Question: And the viability, T/C (second compound 3.16 µM, first compound 0.000999 µM)?
Answer: The viability, T/C was 103%.

Question: What about the viability, T/C (second compound 3.16 µM, first compound 0.00316 µM) of the same compound?
Answer: The viability, T/C was 97.7%.

Question: And the viability, T/C (second compound 3.16 µM, first compound 0.00999 µM)?
Answer: Its viability, T/C is 113%.

Question: What about the viability, T/C [9] of the same compound?
Answer: The viability, T/C was 104%.

Question: And the viability, T/C (second compound 3.16 µM, first compound 0.0999 µM)?
Answer: Its viability, T/C is 87.5%.

Question: And the viability, T/C [10]?
Answer: The viability, T/C was 95%.

Question: What about the viability, T/C (second compound 10 µM, first compound 0.000999 µM) of the same compound?
Answer: Its viability, T/C is 105%.

Question: What about the viability, T/C (second compound 10 µM, first compound 0.00316 µM) of the same compound?
Answer: The viability, T/C was 103%.

Question: And the viability, T/C (second compound 10 µM, first compound 0.00999 µM)?
Answer: Its viability, T/C is 101%.

Question: What about the viability, T/C [11] of the same compound?
Answer: The viability, T/C was 107%.

Question: What about the viability, T/C (second compound 10 µM, first compound 0.0999 µM) of the same compound?
Answer: The viability, T/C was 82.1%.

Question: What about the viability, T/C [12] of the same compound?
Answer: The viability, T/C was 86.4%.
